According to the kinase profiling compilation of Christmann-Franck et al. (2016):

Tests used:
Experiment in all cases: KINOMEscan competition binding
Conditions in all cases: compound 10.0 µM
DYRK1B (human) = DYRK1B (human) (UniProt Q9Y463)
PAK2 (human) = PAK2 (human) (UniProt Q13177)
ZAP70 (human) = ZAP70 (human) (UniProt P43403)
MKNK2 (human) = MKNK2 (human) (UniProt Q9HBH9)
MELK (human) = MELK (human) (UniProt Q14680)
PAK1 (human) = PAK1 (human) (UniProt Q13153)
CAMK2D (human) = CAMK2D (human) (UniProt Q13557)
MAPK15 (human) = MAPK15 (human) (UniProt Q8TD08)
CDC42BPG (human) = CDC42BPG (human) (UniProt Q6DT37)
Chain of CDC42BPG (human) (Q6DT37 whole entry, looked up): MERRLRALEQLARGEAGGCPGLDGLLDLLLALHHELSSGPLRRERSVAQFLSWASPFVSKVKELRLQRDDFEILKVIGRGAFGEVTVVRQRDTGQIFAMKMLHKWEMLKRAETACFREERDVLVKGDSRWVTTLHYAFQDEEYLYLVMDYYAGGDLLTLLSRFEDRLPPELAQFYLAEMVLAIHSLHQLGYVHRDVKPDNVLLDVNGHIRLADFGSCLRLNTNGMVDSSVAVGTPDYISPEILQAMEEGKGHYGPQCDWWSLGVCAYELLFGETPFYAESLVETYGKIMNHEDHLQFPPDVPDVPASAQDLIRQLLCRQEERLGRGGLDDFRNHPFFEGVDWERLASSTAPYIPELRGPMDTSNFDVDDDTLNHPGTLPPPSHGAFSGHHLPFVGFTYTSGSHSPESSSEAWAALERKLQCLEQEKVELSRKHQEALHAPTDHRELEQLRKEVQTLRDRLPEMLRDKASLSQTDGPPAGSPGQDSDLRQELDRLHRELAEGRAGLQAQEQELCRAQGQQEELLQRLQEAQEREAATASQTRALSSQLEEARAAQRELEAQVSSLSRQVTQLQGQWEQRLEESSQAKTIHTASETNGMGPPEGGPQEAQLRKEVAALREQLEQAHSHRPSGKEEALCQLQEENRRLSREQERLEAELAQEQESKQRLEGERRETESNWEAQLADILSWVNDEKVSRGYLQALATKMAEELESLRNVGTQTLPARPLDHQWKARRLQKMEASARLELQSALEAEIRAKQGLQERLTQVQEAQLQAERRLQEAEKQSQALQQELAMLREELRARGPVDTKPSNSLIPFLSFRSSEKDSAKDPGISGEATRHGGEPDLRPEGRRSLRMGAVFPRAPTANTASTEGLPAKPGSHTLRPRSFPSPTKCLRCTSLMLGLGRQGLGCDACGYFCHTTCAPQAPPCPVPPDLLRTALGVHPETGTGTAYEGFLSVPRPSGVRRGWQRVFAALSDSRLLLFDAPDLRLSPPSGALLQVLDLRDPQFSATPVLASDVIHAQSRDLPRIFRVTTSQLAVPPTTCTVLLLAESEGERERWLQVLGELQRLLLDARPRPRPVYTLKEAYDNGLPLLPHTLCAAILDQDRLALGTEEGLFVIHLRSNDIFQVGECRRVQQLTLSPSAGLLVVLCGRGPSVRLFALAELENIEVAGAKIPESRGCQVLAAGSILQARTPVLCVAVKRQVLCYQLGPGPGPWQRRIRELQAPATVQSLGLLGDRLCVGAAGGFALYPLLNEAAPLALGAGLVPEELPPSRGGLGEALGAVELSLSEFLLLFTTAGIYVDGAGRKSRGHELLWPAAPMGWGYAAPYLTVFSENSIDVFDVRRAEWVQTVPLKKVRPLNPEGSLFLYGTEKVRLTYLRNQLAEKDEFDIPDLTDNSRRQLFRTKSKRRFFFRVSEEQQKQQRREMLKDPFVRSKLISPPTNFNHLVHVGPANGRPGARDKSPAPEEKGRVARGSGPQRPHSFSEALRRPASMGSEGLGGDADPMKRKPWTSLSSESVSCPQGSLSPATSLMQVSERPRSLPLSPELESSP

HCK (human) = HCK (human) (UniProt P08631)
PHKG1 (human) = PHKG1 (human) (UniProt Q16816)
Chain of PHKG1 (human) (Q16816 whole entry, looked up): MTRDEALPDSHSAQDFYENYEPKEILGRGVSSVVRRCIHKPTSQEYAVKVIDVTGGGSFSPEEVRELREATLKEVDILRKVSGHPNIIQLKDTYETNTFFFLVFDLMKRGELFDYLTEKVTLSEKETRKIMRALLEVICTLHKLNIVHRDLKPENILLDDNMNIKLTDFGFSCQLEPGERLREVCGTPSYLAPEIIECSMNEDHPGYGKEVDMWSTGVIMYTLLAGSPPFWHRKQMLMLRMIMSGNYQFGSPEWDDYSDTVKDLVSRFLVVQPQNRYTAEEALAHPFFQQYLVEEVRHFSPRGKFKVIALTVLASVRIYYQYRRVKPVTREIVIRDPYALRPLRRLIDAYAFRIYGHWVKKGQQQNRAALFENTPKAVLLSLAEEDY

GSK3B (human) = GSK3B (human) (UniProt P49841)
INSRR (human) = INSRR (human) (UniProt P14616)
ALK (human) = ALK (human) (UniProt Q9UM73)
YSK4 (human) = YSK4 (human) (UniProt Q56UN5)
CDK8 (human) = CDK8 (human) (UniProt P49336)
DCLK2 (human) = DCLK2 (human) (UniProt Q8N568)
Chain of DCLK2 (human) (Q8N568 whole entry, looked up): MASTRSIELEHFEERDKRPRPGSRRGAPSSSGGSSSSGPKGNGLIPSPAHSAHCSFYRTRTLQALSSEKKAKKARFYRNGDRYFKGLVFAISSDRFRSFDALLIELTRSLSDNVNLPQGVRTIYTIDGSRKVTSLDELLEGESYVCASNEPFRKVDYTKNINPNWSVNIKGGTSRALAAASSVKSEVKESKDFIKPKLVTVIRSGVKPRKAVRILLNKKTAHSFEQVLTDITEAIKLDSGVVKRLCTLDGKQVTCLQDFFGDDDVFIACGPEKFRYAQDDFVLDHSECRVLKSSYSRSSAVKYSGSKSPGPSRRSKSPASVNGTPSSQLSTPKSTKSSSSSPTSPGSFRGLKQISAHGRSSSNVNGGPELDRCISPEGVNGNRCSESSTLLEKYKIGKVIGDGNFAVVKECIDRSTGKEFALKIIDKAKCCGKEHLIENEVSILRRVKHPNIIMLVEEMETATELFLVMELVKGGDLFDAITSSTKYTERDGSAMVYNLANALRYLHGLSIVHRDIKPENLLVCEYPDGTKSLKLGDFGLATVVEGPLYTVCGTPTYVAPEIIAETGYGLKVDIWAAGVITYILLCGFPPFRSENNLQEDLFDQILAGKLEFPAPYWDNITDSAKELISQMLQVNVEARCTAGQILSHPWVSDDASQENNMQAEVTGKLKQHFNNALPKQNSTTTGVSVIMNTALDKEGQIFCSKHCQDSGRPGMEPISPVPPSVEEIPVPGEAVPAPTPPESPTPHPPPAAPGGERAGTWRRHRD

MAP4K3 (human) = MAP4K3 (human) (UniProt Q8IVH8)
MKNK1 (human) = MKNK1 (human) (UniProt Q9BUB5)
CSNK1G1 (human) = CSNK1G1 (human) (UniProt Q9HCP0)
Chain of CSNK1G1 (human) (Q9HCP0 whole entry, looked up): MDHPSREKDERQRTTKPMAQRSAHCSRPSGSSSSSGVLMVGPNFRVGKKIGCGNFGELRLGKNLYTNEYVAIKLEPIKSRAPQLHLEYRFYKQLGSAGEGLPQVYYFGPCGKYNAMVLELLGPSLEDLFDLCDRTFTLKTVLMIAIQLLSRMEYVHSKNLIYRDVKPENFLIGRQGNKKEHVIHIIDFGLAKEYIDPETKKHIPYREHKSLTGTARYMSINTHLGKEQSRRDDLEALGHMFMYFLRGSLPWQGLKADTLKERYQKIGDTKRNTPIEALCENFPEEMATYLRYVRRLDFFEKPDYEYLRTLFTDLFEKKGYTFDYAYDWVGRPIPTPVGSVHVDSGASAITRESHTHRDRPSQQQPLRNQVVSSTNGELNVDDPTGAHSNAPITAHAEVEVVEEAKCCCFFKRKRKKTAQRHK

LTK (human) = LTK (human) (UniProt P29376)
ANKK1 (human) = ANKK1 (human) (UniProt Q8NFD2)
Chain of ANKK1 (human) (Q8NFD2 whole entry, looked up): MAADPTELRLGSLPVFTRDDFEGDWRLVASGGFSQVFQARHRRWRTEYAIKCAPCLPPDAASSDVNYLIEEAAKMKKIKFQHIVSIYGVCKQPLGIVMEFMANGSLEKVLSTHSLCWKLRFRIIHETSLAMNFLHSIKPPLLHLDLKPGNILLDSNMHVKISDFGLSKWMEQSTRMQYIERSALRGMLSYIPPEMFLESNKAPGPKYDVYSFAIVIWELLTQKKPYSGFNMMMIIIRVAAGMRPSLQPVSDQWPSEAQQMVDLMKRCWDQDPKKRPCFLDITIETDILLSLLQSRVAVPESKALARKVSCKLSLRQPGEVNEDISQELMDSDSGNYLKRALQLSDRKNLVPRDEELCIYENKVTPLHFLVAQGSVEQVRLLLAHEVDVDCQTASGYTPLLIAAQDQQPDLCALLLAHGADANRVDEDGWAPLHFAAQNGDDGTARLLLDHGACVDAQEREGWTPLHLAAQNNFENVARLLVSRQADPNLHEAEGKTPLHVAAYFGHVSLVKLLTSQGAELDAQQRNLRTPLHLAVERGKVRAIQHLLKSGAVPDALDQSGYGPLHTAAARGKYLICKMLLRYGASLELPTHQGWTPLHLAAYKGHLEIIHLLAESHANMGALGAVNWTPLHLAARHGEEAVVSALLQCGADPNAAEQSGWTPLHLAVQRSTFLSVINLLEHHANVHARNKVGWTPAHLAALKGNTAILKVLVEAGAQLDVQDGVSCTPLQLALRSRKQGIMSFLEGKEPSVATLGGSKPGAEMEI

PTK2B (human) = PTK2B (human) (UniProt Q14289)
EPHA1 (human) = EPHA1 (human) (UniProt P21709)
ADCK4 (human) = ADCK4 (human) (UniProt Q96D53)
RIOK1 (human) = RIOK1 (human) (UniProt Q9BRS2)
FER (human) = FER (human) (UniProt P16591)
PLK2 (human) = PLK2 (human) (UniProt Q9NYY3)
MUSK (human) = MUSK (human) (UniProt O15146)
[1] = tested on: RET (human), P07949 [V804L]
PLK1 (human) = PLK1 (human) (UniProt P53350)
MAP2K4 (human) = MAP2K4 (human) (UniProt P45985)
RPS6KA2 KD2 (human) = RPS6KA2 KD2 (human) (UniProt Q15349)
MAP3K13 (human) = MAP3K13 (human) (UniProt O43283)
EPHA2 (human) = EPHA2 (human) (UniProt P29317)
SGK110 (human) = SGK110 (human) (UniProt P0C264)
SRPK2 (human) = SRPK2 (human) (UniProt P78362)
CDK7 (human) = CDK7 (human) (UniProt P50613)
Chain of CDK7 (human) (P50613 whole entry, looked up): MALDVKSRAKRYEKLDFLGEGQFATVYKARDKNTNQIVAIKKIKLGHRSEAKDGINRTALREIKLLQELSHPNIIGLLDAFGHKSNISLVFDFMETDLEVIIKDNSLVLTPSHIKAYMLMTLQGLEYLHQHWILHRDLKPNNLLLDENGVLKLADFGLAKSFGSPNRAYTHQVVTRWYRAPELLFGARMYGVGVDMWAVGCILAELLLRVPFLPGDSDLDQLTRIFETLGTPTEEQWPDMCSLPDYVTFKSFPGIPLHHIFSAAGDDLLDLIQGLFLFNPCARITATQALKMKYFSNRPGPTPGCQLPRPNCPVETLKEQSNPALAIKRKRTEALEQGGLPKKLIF

PRKCI (human) = PRKCI (human) (UniProt P41743)
STK32A (human) = STK32A (human) (UniProt Q8WU08)

Chain of PAK2 (human) (Q13177 whole entry, looked up): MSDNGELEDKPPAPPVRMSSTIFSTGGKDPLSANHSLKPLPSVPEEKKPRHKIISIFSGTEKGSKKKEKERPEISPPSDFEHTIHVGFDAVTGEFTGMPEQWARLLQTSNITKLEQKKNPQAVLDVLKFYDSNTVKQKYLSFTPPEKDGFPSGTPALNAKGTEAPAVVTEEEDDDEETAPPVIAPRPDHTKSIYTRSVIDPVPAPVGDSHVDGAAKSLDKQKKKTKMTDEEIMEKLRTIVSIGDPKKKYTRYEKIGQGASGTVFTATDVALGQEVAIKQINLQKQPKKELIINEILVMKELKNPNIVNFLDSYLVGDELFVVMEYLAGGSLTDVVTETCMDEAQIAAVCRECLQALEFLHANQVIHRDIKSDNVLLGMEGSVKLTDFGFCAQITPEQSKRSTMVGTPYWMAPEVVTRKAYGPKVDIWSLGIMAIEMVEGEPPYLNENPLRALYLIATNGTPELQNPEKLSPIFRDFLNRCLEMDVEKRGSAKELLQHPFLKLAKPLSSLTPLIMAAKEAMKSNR

Structure (SMILES) | kinase still bound, per cent of control (DYRK1B (human)) | kinase still bound, per cent of control (PAK2 (human)) | kinase still bound, per cent of control (ZAP70 (human)) | kinase still bound, per cent of control (MKNK2 (human)) | kinase still bound, per cent of control (MELK (human)) | kinase still bound, per cent of control (CAMK2D (human)) | kinase still bound, per cent of control (MAPK15 (human)) | kinase still bound, per cent of control (CDC42BPG (human)) | kinase still bound, per cent of control (PHKG1 (human)) | kinase still bound, per cent of control (INSRR (human)) | kinase still bound, per cent of control (ALK (human)) | kinase still bound, per cent of control (YSK4 (human)) | kinase still bound, per cent of control (DCLK2 (human)) | kinase still bound, per cent of control (MAP4K3 (human)) | kinase still bound, per cent of control (CSNK1G1 (human)) | kinase still bound, per cent of control (ANKK1 (human)) | kinase still bound, per cent of control (PTK2B (human)) | kinase still bound, per cent of control (EPHA1 (human)) | kinase still bound, per cent of control (ADCK4 (human)) | kinase still bound, per cent of control (RIOK1 (human)) | other results
CCOc1cc(N2CCC(O)CC2)ccc1Nc1ncc2c(n1)N(C)c1ccccc1C(=O)N2C | 100% | 100% | 100% | 100% | 100% | 100% | 100% | 100% | 100% | 100% | 29% | 100% | 0.65% | 100% | 100% | 100% | 100% | 100% | 100% | 100% | kinase still bound, per cent of control (PAK1 (human)): 100%; kinase still bound, per cent of control (HCK (human)): 100%; kinase still bound, per cent of control (GSK3B (human)): 100%; kinase still bound, per cent of control (CDK8 (human)): 100%; kinase still bound, per cent of control (MKNK1 (human)): 100%; kinase still bound, per cent of control (LTK (human)): 100%; kinase still bound, per cent of control (FER (human)): 100%; kinase still bound, per cent of control (PLK2 (human)): 100%; kinase still bound, per cent of control (MUSK (human)): 100%; kinase still bound, per cent of control [1]: 100%; kinase still bound, per cent of control (PLK1 (human)): 100%; kinase still bound, per cent of control (MAP2K4 (human)): 100%; kinase still bound, per cent of control (RPS6KA2 KD2 (human)): 100%; kinase still bound, per cent of control (MAP3K13 (human)): 100%; kinase still bound, per cent of control (EPHA2 (human)): 100%; kinase still bound, per cent of control (SGK110 (human)): 100%; kinase still bound, per cent of control (SRPK2 (human)): 100%; kinase still bound, per cent of control (CDK7 (human)): 100%
CC(=O)c1c(C)c2cnc(Nc3ccc(N4CCNCC4)cn3)nc2n(C2CCCC2)c1=O | 3.2% | 93% | 73% | 20% | 40% | 6.8% | 9.4% | 94% | 18% | 98% | 38% | 4.3% | 2.9% | 20% | 83% | 79% | 31% | 100% | 53% | 38% | kinase still bound, per cent of control (PRKCI (human)): 57%; kinase still bound, per cent of control (FER (human)): 47%; kinase still bound, per cent of control (STK32A (human)): 87%; kinase still bound, per cent of control (PLK2 (human)): 14%; kinase still bound, per cent of control [1]: 65%; kinase still bound, per cent of control (PLK1 (human)): 8.4%; kinase still bound, per cent of control (RPS6KA2 KD2 (human)): 26%; kinase still bound, per cent of control (MAP3K13 (human)): 82%; kinase still bound, per cent of control (EPHA2 (human)): 95%; kinase still bound, per cent of control (SRPK2 (human)): 68%; kinase still bound, per cent of control (CDK7 (human)): 12%
